Several values for one entry are separate records, joined by “and”; a condition that tells them apart may be missing. Equal values may be shown once.
Tested on: 624824-186-R-J3-PDC multicell spheroids, viability
Experiment: Anticancer human tumor 624824-186-R-J3-PDC patient-derived colon adenocarcinoma cell line growth inhibition [PI3K]
Conditions: for viability, T/C: stronger effect = lower value
In short: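 Multi-cell spheroids combine tumor cells with HUVEC and human MSCs, treated with targeted agents alone or with inavolisib, alpelisib, duvelisib or copanlisib. Concentrations fall in half-log steps from at or near clinical Cmax, or from 10 microM where Cmax is unknown; viability read-out.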

[1] = curve of first compound, second compound 0.0316 µM
[2] = curve of first compound, second compound 0.1 µM
[3] = curve of first compound, second compound 0.316 µM
[4] = curve of first compound, second compound 1 µM
[5] = second compound 0.0316 µM, first compound 0.0316 µM
[6] = second compound 0.0316 µM, first compound 0.1 µM
[7] = second compound 0.0316 µM, first compound 0.316 µM
[8] = second compound 0.0316 µM, first compound 1 µM
[9] = second compound 0.0316 µM, first compound 3.16 µM
[10] = second compound 0.0316 µM, first compound 10 µM
[11] = second compound 0.1 µM, first compound 0.0316 µM
[12] = second compound 0.1 µM, first compound 0.1 µM
[13] = second compound 0.1 µM, first compound 0.316 µM
[14] = second compound 0.1 µM, first compound 1 µM
[15] = second compound 0.1 µM, first compound 3.16 µM
[16] = second compound 0.1 µM, first compound 10 µM
[17] = second compound 0.316 µM, first compound 0.0316 µM
[18] = second compound 0.316 µM, first compound 0.1 µM
[19] = second compound 0.316 µM, first compound 0.316 µM
[20] = second compound 0.316 µM, first compound 1 µM
[21] = second compound 0.316 µM, first compound 3.16 µM
[22] = second compound 0.316 µM, first compound 10 µM
[23] = second compound 1 µM, first compound 0.0316 µM
[24] = second compound 1 µM, first compound 0.1 µM
[25] = second compound 1 µM, first compound 0.316 µM
[26] = second compound 1 µM, first compound 1 µM
[27] = second compound 1 µM, first compound 3.16 µM
[28] = second compound 1 µM, first compound 10 µM
[29] = curve of first compound, second compound 0.00316 µM
[30] = curve of first compound, second compound 0.01 µM
[31] = second compound 0.00316 µM, first compound 0.0316 µM
[32] = second compound 0.00316 µM, first compound 0.1 µM
[33] = second compound 0.00316 µM, first compound 0.316 µM
[34] = second compound 0.00316 µM, first compound 1 µM
[35] = second compound 0.00316 µM, first compound 3.16 µM
[36] = second compound 0.00316 µM, first compound 10 µM
[37] = second compound 0.01 µM, first compound 0.0316 µM
[38] = second compound 0.01 µM, first compound 0.1 µM
[39] = second compound 0.01 µM, first compound 0.316 µM
[40] = second compound 0.01 µM, first compound 1 µM
[41] = second compound 0.01 µM, first compound 3.16 µM
[42] = second compound 0.01 µM, first compound 10 µM
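Also: spheroids exposed to agents for seven days before luminescence read.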
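For viability, T/C in this document: luminescent signal used as a stand-in for spheroid viability; percent viability relative to DMSO vehicle control wells taken as 100%.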

With `CC(Cn1ccc(-c2ccc(C#N)c(Cl)c2)n1)NC(=O)c1cc(C(C)O)[nH]n1` (configuration not stated) + Cc1nc(NC(=O)N2CCCC2C(N)=O)sc1-c1ccnc(C(C)(C)C(F)(F)F)c1 the IC50 [1] was > 10 µM, the IC50 [2] was > 10 µM and the IC50 [3] was > 10 µM. For the same compound, the IC50 [4] was > 10 µM, the IC50 (curve of first compound, second compound 3.16 µM) was > 10 µM and the IC50 (curve of first compound, second compound 10 µM) was > 10 µM. For the same compound, the viability, T/C [5] was 101%, the viability, T/C [6] was 107% and the viability, T/C [7] was 102%. For the same compound, the viability, T/C [8] was 104%, the viability, T/C [9] was 104% and the viability, T/C [10] was 113%. The viability, T/C [11] was 108%, the viability, T/C [12] was 105% and the viability, T/C [13] was 108%. It also gave a viability, T/C [14] of 102%, a viability, T/C [15] of 107% and a viability, T/C [16] of 109%. For the same compound, the viability, T/C [17] was 107%, the viability, T/C [18] was 101% and the viability, T/C [19] was 104%. For the same compound, the viability, T/C [20] was 93.1%, the viability, T/C [21] was 115% and the viability, T/C [22] was 107%. For the same compound, the viability, T/C [23] was 111%, the viability, T/C [24] was 101% and the viability, T/C [25] was 109%. For the same compound, the viability, T/C [26] was 101%, the viability, T/C [27] was 101% and the viability, T/C [28] was 98.7%. For the same compound, the viability, T/C (second compound 3.16 µM, first compound 0.0316 µM) was 86.4%, the viability, T/C (second compound 3.16 µM, first compound 0.1 µM) was 91.5% and the viability, T/C (second compound 3.16 µM, first compound 0.316 µM) was 88.3%. The viability, T/C (second compound 3.16 µM, first compound 1 µM) was 91.4%, the viability, T/C (second compound 3.16 µM, first compound 3.16 µM) was 79.3% and the viability, T/C (second compound 3.16 µM, first compound 10 µM) was 86.1%. It also gave a viability, T/C (second compound 10 µM, first compound 0.0316 µM) of 72.4%, a viability, T/C (second compound 10 µM, first compound 0.1 µM) of 75.6% and a viability, T/C (second compound 10 µM, first compound 0.316 µM) of 66.5%. It also gave a viability, T/C (second compound 10 µM, first compound 1 µM) of 67.3%, a viability, T/C (second compound 10 µM, first compound 3.16 µM) of 67.3% and a viability, T/C (second compound 10 µM, first compound 10 µM) of 62.4%.
With `Cn1ncc(Cl)c1-c1cc(C(=O)NC(CN)Cc2cccc(F)c2)sc1Cl` (configuration not stated) the viability, T/C (compound 0.0316 µM) was 104% [middle of 4 runs], the viability, T/C (compound 0.1 µM) was 101% (2×) and 112% and 104% and the viability, T/C (compound 0.316 µM) was 95.1% [middle of 4 runs]. For the same compound, the viability, T/C (compound 1 µM) was 76.3% [middle of 4 runs], the viability, T/C (compound 3.16 µM) was 67.9% [middle of 4 runs] and the IC50 (curve of compound) was 8.4 µM and > 10 µM and 5.42 µM.
For `CC1(C)CCC(Nc2ncc(C(F)(F)F)c(-c3c[nH]c4c(P(C)(C)=O)c(C#N)ccc34)n2)CN1` (configuration not stated) + COc1c(OCCCN2CCOCC2)ccc2c3n(c(=NC(=O)c4cnc(N)nc4)nc12)CCN3, the IC50 [29] was 5.42 µM, the IC50 [30] was 5.06 µM and the IC50 [1] was 3.6 µM. The IC50 [2] was < 0.0316 µM, the IC50 [3] was < 0.0316 µM and the IC50 [4] was < 0.0316 µM. The viability, T/C [31] was 103%, the viability, T/C [32] was 84.7% and the viability, T/C [33] was 87.1%. It also gave a viability, T/C [34] of 85%, a viability, T/C [35] of 95.1% and a viability, T/C [36] of 3.27%. The viability, T/C [37] was 90.8%, the viability, T/C [38] was 72.4% and the viability, T/C [39] was 76.6%. The viability, T/C [40] was 81.7%, the viability, T/C [41] was 89.5% and the viability, T/C [42] was 3.28%. The viability, T/C [5] was 59.7%, the viability, T/C [6] was 55.2% and the viability, T/C [7] was 54.9%. It also gave a viability, T/C [8] of 60.6%, a viability, T/C [9] of 55.9% and a viability, T/C [10] of 2.59%. It also gave a viability, T/C [11] of 41.8%, a viability, T/C [12] of 36.6% and a viability, T/C [13] of 40.8%. For the same compound, the viability, T/C [14] was 38.2%, the viability, T/C [15] was 37.9% and the viability, T/C [16] was 1.87%. For the same compound, the viability, T/C [17] was 28.5%, the viability, T/C [18] was 30.3% and the viability, T/C [19] was 28.9%. The viability, T/C [20] was 24.8%, the viability, T/C [21] was 24.7% and the viability, T/C [22] was 1.42%. For the same compound, the viability, T/C [23] was 19.4%, the viability, T/C [24] was 18.4% and the viability, T/C [25] was 19%. The viability, T/C [26] was 18.1%, the viability, T/C [27] was 18% and the viability, T/C [28] was 1.68%.
Compound `CC1(C)CCC(CN2CCN(c3ccc(C(=O)NS(=O)(=O)c4ccc(NCC5CCOCC5)c([N+](=O)[O-])c4)c(Oc4cnc5[nH]ccc5c4)c3)CC2)=C(c2ccc(Cl)cc2)C1` + CC(Nc1ccc2c(c1)OCCn1cc(N3C(=O)OCC3C(F)F)nc1-2)C(N)=O has an IC50 [29] of 9.41 µM, an IC50 [30] of 8.77 µM and an IC50 [1] of 9.64 µM. The IC50 [2] was 9.37 µM, the IC50 [3] was > 10 µM and the IC50 [4] was 9.12 µM. The viability, T/C [31] was 104%, the viability, T/C [32] was 88.6% and the viability, T/C [33] was 102%. It also gave a viability, T/C [34] of 90.9%, a viability, T/C [35] of 112% and a viability, T/C [36] of 47.3%. For the same compound, the viability, T/C [37] was 105%, the viability, T/C [38] was 92% and the viability, T/C [39] was 99.5%. For the same compound, the viability, T/C [40] was 106%, the viability, T/C [41] was 114% and the viability, T/C [42] was 43.2%. It also gave a viability, T/C [5] of 100%, a viability, T/C [6] of 105% and a viability, T/C [7] of 89.4%. It also gave a viability, T/C [8] of 99%, a viability, T/C [9] of 117% and a viability, T/C [10] of 48.3%. The viability, T/C [11] was 88.7%, the viability, T/C [12] was 99.9% and the viability, T/C [13] was 90.9%. It also gave a viability, T/C [14] of 109%, a viability, T/C [15] of 102% and a viability, T/C [16] of 47.1%. The viability, T/C [17] was 98.5%, the viability, T/C [18] was 95.3% and the viability, T/C [19] was 99.2%. It also gave a viability, T/C [20] of 86.3%, a viability, T/C [21] of 89% and a viability, T/C [22] of 53.6%. For the same compound, the viability, T/C [23] was 82.7%, the viability, T/C [24] was 85.5% and the viability, T/C [25] was 85.7%. The viability, T/C [26] was 81.4%, the viability, T/C [27] was 70.2% and the viability, T/C [28] was 48.2%.
